From patent publication US7772252B2, “Heterocyclic substituted carbonyl derivatives and their use as dopamine D3 receptor ligands” (Aventis Pharmaceuticals Inc., priority 2001, dated 2010)

These compounds were tested against T1, cloned human alpha-1A adrenergic receptors (α1a) (Homo sapiens, UniProt P35348) (assay: [3H]Prazosin binding to cloned human alpha-1A adrenergic receptors expressed in CHO cells). Conditions: read-out: halpha1Ki (nM) h = human.
T1 construct: expressed in transfected cells; membranes
T1 sequence (P35348 1-466): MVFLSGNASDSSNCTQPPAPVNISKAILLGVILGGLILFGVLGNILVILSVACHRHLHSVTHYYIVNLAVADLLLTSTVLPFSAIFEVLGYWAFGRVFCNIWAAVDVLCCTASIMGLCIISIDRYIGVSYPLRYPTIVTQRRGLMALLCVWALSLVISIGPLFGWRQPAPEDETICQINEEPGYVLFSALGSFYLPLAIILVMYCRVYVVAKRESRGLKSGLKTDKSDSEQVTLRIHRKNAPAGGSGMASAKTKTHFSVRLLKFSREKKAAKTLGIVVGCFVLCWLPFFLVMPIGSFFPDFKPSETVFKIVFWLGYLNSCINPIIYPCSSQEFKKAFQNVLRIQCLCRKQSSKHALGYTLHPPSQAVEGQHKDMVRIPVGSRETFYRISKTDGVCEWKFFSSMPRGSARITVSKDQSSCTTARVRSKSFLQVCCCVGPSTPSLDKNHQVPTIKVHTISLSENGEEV
Text: ^3H]Prazosin Binding to Cloned Human Alpha-1A Adrenergic Receptors (α1a) Expressed in Chinese Hamster Ovary Cells (CHO)
• Purpose: This in vitro assay is designed as a screen to identify compounds displaying a affinity for the human α1a adrenoceptor subtype expressed in the membrane fragments of CHO cells. The assay measures the ability of the test compounds to displace [^3H] prazosin from α1a sites. • The identification of multiple vascular α1-addrenoceptors (α1a, α1b, α1d) in vitro has provided impetus to define the role(s) of these subtypes in cardiovascular regulation in vivo (Vargas and Gorman, 1995). […] Prazosin is a potent antagonist of the human α1a-adrenoceptor subtype, which has been cloned and is expressed in the membrane fragments of CHO cells. • hα1a receptor: The cloning of the human α1a cDNA was accomplished first by screening a human prostate cDNA library (Clontech), from which a portion of the coding region was obtained. This DNA fragment was then used to screen a human leukocyte genomic library (Clontech), and the rest of the coding sequence was obtained. Later these two fragments were spliced together. The entire coding sequence was then fully sequenced including matching PCR sequence with original genomic coding sequence, thus ensuring splice sites were joined correctly (Schwinn et al., 1995). Once sequenced, the gene was subcloned into the expression vector pcDNA3 (Invitrogen). Plasmid DNA was then used for transfection into CHO cells and G418 resistant clones were isolated. A clone expressing high levels of the hα1a receptor (as determined by mRNA and receptor binding data) was chosen and pharmacologically characterized. • Culture Media Ingredients for Adherent α1a expressing CHO Culture: • A. HAM's F-12 (Celigro) • B. 10% 0.2 micron filtered Fetal Bovine Serum (FBS)(Celigro) • C. 1% 0.2 micron filtered Penicillin-Streptomycin (Celigro) • D. G418 0.2 micron filtered (Geneticin 400 μg/ml)(Celigro) • Cells are cultured using established methods and procedures in either 150×25 mm culture plates (scale up to 100 plates) or a combination of these plates and 70 roller bottles. One culturing/harvest cycle typically requires 2 weeks and yields between 100-400 mg protein. Plates or bottles are incubated at 37° C.+5% CO2. • Storage: Cells are harvested by mechanical scraping, washed using PBS, collected in 250 ml Corning polypropylene centrifuge tubes, spun down (1500 RPM) and resuspended in dH2O 10% DMSO (final volume per harvest is approximately 50 ml). Protein determination is made using the Biorad DC Assay Kit. Finally, the appropriate volume is aliquoted into a 2 ml Corning Cryovial (10 mg/1-1.5 ml) which is stored at −80° C.
• Assay Requirement: 0.5 cryovials per 96 well plate (assay volume=200 μl/well) • [^3H]-Ligand: [7-methoxy-^3H]-Prazosin: 1.0 nM (NEN, NET-823) • 70-87 Ci/mmol • Materials: Phentolamine mesylate (Research Biochemicals Int. #P-131) • 96 well flat bottom plates (Beckman) • Unifilter GF/B Plate (Packard) • Polyethylenimine (Sigma #P-3134) • TomTec or Packard Filtermate 196 Cell Harvesters • Packard TopCount Scintillation Counter • Buffers: A: 50 mM Tris HCl; 0.1% ascorbate, pH 7.7 (incubation buffer) • B: 50 mM Tris HCl; pH 7.7 (wash buffer) • Procedure: Assay additions are as follows (in the order indicated): • Total Binding=50 μl buffer A+50 μl [^3H]prazosin+100 μl membrane • Nonsp. Bd.=50 μl 10 μM phentolamine+50 μl [^3H]prazosin+100 μl membrane • Test Cpd.=50 μl compound+50 μl [^3H]prazosin+100 μl membrane • Compounds to be evaluated are weighed out to yield a 10 mM stock solution in DMSO in a 24 well polystyrene plate. This is diluted to a 0.5 mM stock in dH2O, Serial dilutions in Buffer A are made from which 50 μl additions to the plate are made in duplicate in order to achieve the final concentrations desired. Typically, one 96 well plate is used to evaluate 11 compounds at 4 concentrations (10^−6-10^−9 M) in duplicate. Total binding and nonspecific binding are determined in quadruplicate. […]

SMILES | Ki
CC1CCCC(NC(=O)CCCN2CCN(c3csc4cc(C(F)(F)F)ccc34)CC2)C1 (racemic) [compound 826807] | 166000 nM
O=C(CCCN1CCN(c2csc3cc(F)ccc23)CC1)NC1CCCC1 (racemic) [compound 826860] | 0.516 nM
O=C(CCCN1CCN(c2csc3cc(C(F)(F)F)ccc23)CC1)N1CCC(O)CC1 [compound 826812] | 658 nM
CC1CCCCN1C(=O)CCCN1CCN(c2csc3cc(C(F)(F)F)ccc23)CC1 (stereo not drawn) [compound 826813] | 57 nM
CC1CCN(C(=O)CCCN2CCN(c3csc4cc(C(F)(F)F)ccc34)CC2)CC1 [compound 826814] | 89.3 nM
CC1CCCN(C(=O)CCCN2CCN(c3csc4cc(C(F)(F)F)ccc34)CC2)C1 (stereo not drawn) [compound 826815] | 80.5 nM
O=C(CCCN1CCN(c2csc3cc(C(F)(F)F)ccc23)CC1)N1CCC(N2CCCC2)CC1 [compound 826816] | 249 nM
CC1CC(C)CN(C(=O)CCCN2CCN(c3csc4cc(C(F)(F)F)ccc34)CC2)C1 (stereo not drawn) [compound 826818] | 124 nM
O=C(CCCN1CCN(c2csc3cc(C(F)(F)F)ccc23)CC1)N1CCCC1 [compound 826819] | 49 nM
O=C(CCCN1CCN(c2csc3cc(C(F)(F)F)ccc23)CC1)NC1CCCC1 [compound 826820] | 129 nM
O=C(CCCN1CCN(c2csc3cc(C(F)(F)F)ccc23)CC1)NC1CCCCC1 [compound 826821] | 1280 nM
CC1CCCN1C(=O)CCCN1CCN(c2csc3cc(C(F)(F)F)ccc23)CC1 (stereo not drawn) [compound 826822] | 32.2 nM
CN(C)C1CCN(C(=O)CCCN2CCN(c3csc4cc(C(F)(F)F)ccc34)CC2)C1 (stereo not drawn) [compound 826823] | 148 nM
CCOC(=O)[C@H]1CC[C@H](NC(=O)CCCN2CCN(c3csc4cc(F)ccc34)CC2)CC1 [compound 826845] | 5.44 nM
CC1CCCC(NC(=O)CCCN2CCN(c3csc4cc(F)ccc34)CC2)C1 (stereo not drawn) [compound 826847] | 0.513 nM
CN(C(=O)CCCN1CCN(c2csc3cc(F)ccc23)CC1)C1CCCCC1 [compound 826848] | 12.3 nM
O=C(CCCN1CCN(c2csc3cc(F)ccc23)CC1)N(CCO)C1CCCCC1 [compound 826850] | 28.4 nM
O=C(CCCN1CCN(c2csc3cc(F)ccc23)CC1)N1CCC(O)CC1 [compound 826852] | 6.16 nM
CC1CCCCN1C(=O)CCCN1CCN(c2csc3cc(F)ccc23)CC1 (stereo not drawn) [compound 826853] | 0.258 nM
CC1CCCN(C(=O)CCCN2CCN(c3csc4cc(F)ccc34)CC2)C1 (stereo not drawn) [compound 826855] | 0.889 nM
O=C(CCCN1CCN(c2csc3cc(F)ccc23)CC1)N1CCC(N2CCCC2)CC1 [compound 826856] | 15.3 nM
CC1CC(C)CN(C(=O)CCCN2CCN(c3csc4cc(F)ccc34)CC2)C1 (stereo not drawn) [compound 826858] | 9.42 nM

More lines, now with the values ahead:

Ki | SMILES
126 nM | CN(C(=O)CCCN1CCN(c2csc3cc(C(F)(F)F)ccc23)CC1)C1CCCCC1 [compound 826808]
200 nM | O=C(CCCN1CCN(c2csc3cc(C(F)(F)F)ccc23)CC1)N(CCO)C1CCCCC1 [compound 826810]
223 nM | CCOC(=O)C1CCN(C(=O)CCCN2CCN(c3csc4cc(C(F)(F)F)ccc34)CC2)CC1 [compound 826811]
23.4 nM | C[C@H]1CC[C@H](NC(=O)CCCN2CCN(c3csc4cc(F)ccc34)CC2)CC1 [compound 826844]
93.9 nM | CC[C@H]1CC[C@H](NC(=O)CCCN2CCN(c3csc4cc(F)ccc34)CC2)CC1 [compound 826846]
35.2 nM | CCN(C(=O)CCCN1CCN(c2csc3cc(F)ccc23)CC1)C1CCCCC1 [compound 826849]
18.9 nM | CCOC(=O)C1CCN(C(=O)CCCN2CCN(c3csc4cc(F)ccc34)CC2)CC1 [compound 826851]
0.0713 nM | CC1CCN(C(=O)CCCN2CCN(c3csc4cc(F)ccc34)CC2)CC1 [compound 826854]
4 nM | O=C(CCCN1CCN(c2csc3cc(F)ccc23)CC1)N1CCCC1 [compound 826859]
9.55 nM | O=C(CCCN1CCN(c2csc3cc(F)ccc23)CC1)NC1CCCCC1 [compound 826861]
0.637 nM | CC1CCCN1C(=O)CCCN1CCN(c2csc3cc(F)ccc23)CC1 (stereo not drawn) [compound 826862]
